Legend:
[1] = system: human acute lymphatic leukemia cell line CCRF-HSB-2; test: In vitro combined use test, Cell Titer-Glo; assay type: cell-based; conditions: 72 hours
Method: A human acute lymphatic leukemia cell line CCRF-HSB-2 was prepared in an IMDM medium containing 10% FBS (10% FBS-IMDM medium) at about 200000 cells/mL, and seeded in a 96 well plate at 50 μL/well. […] The plate was incubated at 37° C. in humidified air including 5% CO2 for 72 hours. After culturing, relative luminescence unit (RLU), proportional to cellular endogenous ATP amount, was measured by Cell Titer-Glo Luminescent Cell Viability Assay (registered trademark). Percentage (%) of RLU of each compound-treated group relative to RLU of the vehicle group was measured.

[2] = system: leukemia cells in bone marrow derived from patient with acute myeloid leukemia; test: Proliferation test (CFDA-SE), bone marrow sample of acute myeloid leukemia patient, compound A combined with anticancer drugs; assay type: cell-based, human; conditions: 96 hours, Ci<1 synergistic action
Method: (§1) Initial evaluation: Bone marrow samples were obtained from an adult acute myeloid leukemia patient. […] Furthermore, to evaluate the initial survival rate of cells, Annexin V was added to the above-mentioned combination of MAb.
Proliferation test: Proliferation was measured using a CFDA-SE coloring agent. A coloring agent which had been prepared in advance was placed in 15-mL tube including bone marrow enough to obtain about 6000 cells/well of living leukemia cells. Thereafter, they were diluted with the medium such that the total volume became 1 mL. After the resultant product was mixed well by vortex, the mixture was incubated on a rotator at room temperature with light shielded for 10 minutes. Then, the tube was filled with cool RPMI1640 including 10% FBS (medium 2), and incubated on ice for 5 minutes to stop the reaction. Thereafter, the cells were washed with the medium 2 twice. For the final re-suspension before plating and incubation, the medium 1 replenished with a cytokine cocktail was used. […] The plate containing the sample was incubated at 37° C. in humidified air including 5% CO2 for 96 hours. In order to prepare a sample for analysis, erythrocytes were lysed after completion of incubation, and then, the sample was stained with the best combination of Mab and Annexin V to identify the leukemia cells in the sample. Finally, the plate was analyzed by ExviTech (registered trademark) platform.
Data analysis: Synergistic analysis was carried out by calculating Combination Index (Ci) as described in Cancer Research, Vol. 70, No. 2, pp. 440-446, 2010. […] Note here that the meaning of the Ci value is regarded as follows.
(§2) Ci<1: synergistic action, Ci=1: additive action, Ci>1: antagonistic action

[3] = system: mouse pancreatic cancer cell line Pan02 orthotopic implantation model; test: Antitumor action, orthotopic transplantation model, survival; assay type: in vivo; conditions: Pan02 orthotopic implantation mice; compound A 20 mg/kg/day via the diet; gemcitabine 60 mg/kg i.p. twice a week; Day 0 to Day 95
Method: For the compound A, mouse feed CRF-1 containing 0.013% compound A was manufactured by Oriental Yeast Co., Ltd. so as to be administered in 20 mg/kg/day as administration via the diet. Gemcitabine was obtained from Wako Pure Chemical Industries, Ltd. C57/BL6 mouse pancreatic cancer cell line Pan02 was transplanted into the pancreas of the same type syngeneic mice (C57/BL6, female, 6-week old (Charles River Laboratories Japan, Inc.)) to produce Pan02 orthotopic implantation mice. On day 7 after transplantation, based on the body weight, the mice were assigned to four groups, i.e., a vehicle group, a gemcitabine group, compound A group, a combined use group of gemcitabine+compound A, and the compound A (each n=8 to 9). The day on which group assignment was carried out was defined as Day 0. To the vehicle group and the compound A group, PBS (10 mL/kg, twice a week) was intraperitoneally administered. To the gemcitabine group and a combined use group of gemcitabine+compound A, gemcitabine (60 mg/10 mL/kg, twice a week) was administered by intraperitoneal administration. To the compound A group and the combined use group of gemcitabine+compound A, CRF-1 containing 0.013% compound A was fed from Day 0. From Day 0 to Day 95, the survival time of each mouse in each group was evaluated. […]

[4] = system: human acute myeloid leukemia cell line CMK-11-5; test: In vitro combined use test, Cell Counting Kit-8; assay type: cell-based; conditions: 72 hours
Method: A human acute myeloid leukemia cell line CMK-11-5 was prepared in an RPMI medium containing 10% FBS (10% FBS-RPMI medium) at about 30000 cells/mL, and seeded in a 96 well plate at 50 μL/well. To this, 10% FBS-RPMI medium containing ABBV-075 having 4 times higher concentration than the final concentration was added at 25 μL/well. Furthermore, 10% FBS-RPMI medium containing the compound A having 4 times higher concentration than the final concentration was added at 25 μL/well (final volume: 100 μL/well DMSO concentration: 0.2%). The plate was incubated at 37° C. in humidified air including 5% CO2 for 72 hours. After culturing, absorbance at 450 nm of a formazan product, proportional to the number of living cells, was measured using Cell Counting Kit-8. Percentage (%) of absorbance at 450 nm of each compound-treated group with respect to absorbance at 450 nm of the vehicle group was calculated.

[5] = system: leukemia cells in bone marrow derived from patient with acute myeloid leukemia; test: Reduction test, bone marrow sample of acute myeloid leukemia patient, compound A combined with anticancer drugs; assay type: cell-based, human; conditions: 96 hours, Ci<1 synergistic action
Method: as §1
The plate containing the sample was incubated at 37° C. in humidified air including 5% CO2 for 96 hours. In order to prepare a sample for analysis, erythrocytes were lysed after completion of incubation, and then, the sample was stained with the best combination of Mab and Annexin V to identify the leukemia cells in the sample. Finally, the plate was analyzed by ExviTech (registered trademark) platform.
Note here that the meaning of the Ci value is regarded as follows.
as §2

Nc1ccn([C@@H]2O[C@H](CO)[C@@H](O)[C@@H]2O)c(=O)n1 [Cytarabine, cytarabine]
Ci median value in combined use with compound A [1]: 0.696 | RLU in combined use with compound A compared with single use of each agent [1]: lowered

CCc1nc(C(N)=O)c(Nc2ccc(N3CCC(N4CCN(C)CC4)CC3)c(OC)c2)nc1NC1CCOCC1 [Gilteritinib, gilteritinib]
Ci median value in combined use with compound A [2]: 0.495

COc1cc2nccc(Oc3ccc(NC(=O)c4cc5c(n(-c6ccccc6)c4=O)CCCC5=O)nc3)c2cc1OC [Compound A, N-{5-[(6,7-dimethoxy-4-quinolinyl)oxy]-2-pyridinyl}-2,5-dioxo-1-phenyl-1,2,5,6,7,8-hexahydro-3-quinolinecarboxamide]
Median value of survival days [3]: 54 days

CCS(=O)(=O)Nc1ccc(Oc2ccc(F)cc2F)c(-c2cn(C)c(=O)c3[nH]ccc23)c1 [ABBV-075]
absorbance at 450 nm in combined use with compound A compared with single use of each agent [4]: lowered

C[C@@H]1C[C@H]2[C@@H]3CCC4=CC(=O)C=C[C@]4(C)[C@@]3(F)[C@@H](O)C[C@]2(C)[C@@]1(O)C(=O)CO [Dexamethasone, dexamethasone]
Ci median value in combined use with compound A [1]: 0.589

CO[C@@H]1[C@H](N(C)C(=O)c2ccccc2)C[C@H]2O[C@]1(C)n1c3ccccc3c3c4c(c5c6ccccc6n2c5c31)C(=O)NC4 [Midostaurin, midostaurin]
Ci median value in combined use with compound A [2]: 0.673

COc1cc(C(=O)O)ccc1NC(=O)[C@@H]1N[C@@H](CC(C)(C)C)[C@](C#N)(c2ccc(Cl)cc2F)[C@H]1c1cccc(Cl)c1F [Idasanutlin, idasanutlin]
Ci median value in combined use with compound A [5]: 0.719

CCCCc1nc2cc(/C=C/C(=O)NO)ccc2n1CCN(CC)CC [Plasinostat, plasinostat]
Ci median value in combined use with compound A [5]: 0.440

COc1cccc2c1C(=O)c1c(O)c3c(c(O)c1C2=O)C[C@@](O)(C(C)=O)C[C@@H]3O[C@H]1C[C@H](N)[C@H](O)[C@H](C)O1 [Daunorubicin, daunorubicin]
Ci median value in combined use with compound A [1]: 0.936 | RLU in combined use with compound A compared with single use of each agent [1]: lowered

Nc1ccn([C@@H]2O[C@H](CO)[C@@H](O)C2(F)F)c(=O)n1 [Gemcitabine, gemcitabine]
Median value of survival days [3]: 67 days

CC[C@@H]1C(=O)N(C)c2cnc(Nc3ccc(C(=O)N[C@H]4CC[C@H](N5CCN(CC6CC6)CC5)CC4)cc3OC)nc2N1C(C)C [Volasertib, volasertib]
Ci median value in combined use with compound A [2]: 0.830
